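96-well plates; 48 h exposure; 5 concentrations. Endpoints by linear interpolation between flanking doses. Not reached: highest tested concentration assigned. TGI marks complete inhibition of growth.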
What was measured:
Assay in all cases: inhibition of tumour cell growth, NCI panel, 48 h
[1] = tested on: LXFL 529 NSCLC
[2] = tested on: SNB-19 CNS
[3] = tested on: SN12C renal
[4] = tested on: M19-MEL melanoma
[5] = tested on: SR leukemia
[6] = tested on: SF-295 CNS
[7] = tested on: OVCAR-5 ovarian
[8] = tested on: COLO 205 colon
[9] = tested on: SF-539 CNS
[10] = tested on: OVCAR-8 ovarian
[11] = tested on: HCC-2998 colon
[12] = tested on: RXF-631 renal
[13] = tested on: RPMI-8226 leukemia
[14] = tested on: U251 CNS
[15] = tested on: KM12 colon
[16] = tested on: CCRF-CEM leukemia
[17] = tested on: M14 melanoma
[18] = tested on: MOLT-4 leukemia
[19] = tested on: NCI-H522 lung
[20] = tested on: A498 renal
[21] = tested on: KM20L2 colon
[22] = tested on: SK-MEL-2 melanoma
[23] = tested on: SK-OV-3 ovarian
[24] = tested on: SW-620 colon
[25] = tested on: RXF 393 renal
[26] = tested on: HOP-62 NSCLC
[27] = tested on: OVCAR-3 ovarian
[28] = tested on: NCI-H23 lung
[29] = tested on: A549 NSCLC
[30] = tested on: UACC-257 melanoma
[31] = tested on: NCI-H226 lung
[32] = tested on: NCI-H460 lung
[33] = tested on: IGROV1 ovarian
[34] = tested on: HCT-15 colon
[35] = tested on: SF-268 CNS
[36] = tested on: LOX IMVI melanoma
[37] = tested on: UO-31 renal
[38] = tested on: EKVX NSCLC
[39] = tested on: SK-MEL-5 melanoma
[40] = tested on: DLD-1 colon
[41] = tested on: HCT-116 colon
[42] = tested on: CAKI-1 renal
[43] = tested on: TK-10 renal
[44] = tested on: HL-60(TB) leukemia
[45] = tested on: OVCAR-4 ovarian
[46] = tested on: MALME-3M melanoma
[47] = tested on: K-562 leukemia
[48] = tested on: HT29 colon
[49] = tested on: ACHN renal
[50] = tested on: DMS 273 small cell lung
[51] = tested on: SNB-75 CNS
[52] = tested on: UACC-62 melanoma
[53] = tested on: 786-0 renal
[54] = tested on: SK-MEL-28 melanoma
[55] = tested on: SNB-78 CNS

Measured: TGI

O=C(O)C(Cc1ccccc1)N=Cc1nc(-c2ccccc2)oc1O (stereo not given)
> 100 µM: all assays above
